Experimental data published in patent US20020137733A1, “Macrocyclic anti-viral compounds” (priority 2000, published 2002).
In brackets after ≈: the same amount, converted by molar mass. Like-named read-outs stand apart in the source and are kept apart here.

Assays:
VZV YS strain = assay: Anti-VZV plaque assay, YS strain (Tk+); type: cell-based, varicella zoster virus; conditions: read-out: ANTI-VZV ACTIVITY EC50 Plaque assay VZV Tk+ YS strain
Method: (§1) Human embryonic lung fibroblast (HEL) cells were grown in 96-well plates at the confluent stage and then were infected with reference strains VZV expressing viral thymidine kinase (YS and Oka) or lacking the viral thymidine kinase (07-1 and YS-R) at 20 plaque-forming units (PFU) for plaque assay. After a 2 hours incubation, residual virus was removed and the infected cells were further incubated with Eagle's MEM culture medium supplemented with 2% inactivated FCS (fetal calf serum), 1% L-glutamine and 0.3% sodium bicarbonate containing dilution of the test compounds (in duplicate) After 5 days incubation at 37 C. in 5% CO2 atmosphere, cells were fixed with ethanol and stained with 2.5% Giemsa solution. Virus plaque formation was monitored microscopically. […] IC50 values were estimated from graphic plots of the number of plaques (percentage of control) as a function of the concentration of the test compounds.

VZV OKA strain = assay: microbe, parasite or virus in culture; type: cell-based, varicella zoster virus; conditions: Human alphaherpesvirus 3, HEL, read-out: ANTI-VZV ACTIVITY EC50 Plaque assay VZV Tk+ OKA strain
Method: as §1

VZV YS/R strain = assay: microbe, parasite or virus in culture; type: cell-based, varicella zoster virus; conditions: Human alphaherpesvirus 3, HEL, read-out: ANTI-VZV ACTIVITY EC50 Plaque assay VZV Tk− YS/R strain
Method: as §1

VZV 07/1 strain = assay: microbe, parasite or virus in culture; type: cell-based, varicella zoster virus; conditions: Human alphaherpesvirus 3, HEL, read-out: ANTI-VZV ACTIVITY EC50 Plaque assay VZV Tk− 07/1 strain
Method: as §1

HEL cells = assay: Cytotoxicity, alteration of cell morphology (MTC), HEL cells; conditions: for CYTOTOXICITY MTC HEL: Table 1 (anti-HSV study)
From the text: (§2) Method 10. Cytotoxicity Measurements Based on Alteration of Cell Morphology
(§3) Minimum toxic concentration which is expressed as MTC, is the minimum concentration of compound required to cause microscopically detectable alteration in normal cell morphology.
(§4) MTC: Minimal toxic concentration or minimal concentration required to alter normal cell morphology (Visual examination)

HSV-1 Tk− = assay: Anti-HSV CPE assay, HSV-1 Tk- (thymidine kinase deficient); type: cell-based, herpes simplex virus type 1
Method: (§5) Human embryonic lung fibroblast (HEL) cells and Vero cells were propagated in minimal essential medium (MEM) supplemented with 10% fetal calf serum, L-glutamine, and bicarbonate. A CPE assay was used, confluent cultures of HEL or Vero cells grown in 96-well microtiter plates were inoculated with 100 times the 50% cell culture infective dose of the different HSV strains (HSV-1 KOS; HSV-1 Tk−, which is deficient for thymidine kinase; and HSV-2 G). Compounds were added after a 2 hours virus adsorption period. After 2 to 3 days incubation at 37 C. in 5% CO2 atmosphere, cells were fixed with ethanol and stained with 2.5% Giemsa solution. Virus-induced cytopathic effect (CPE) was then recorded microscopically. […] IC50 values were estimated from graphic plots of the number of plaques (percentage of control) or percentage of cytopathocity as a function of the concentration of the test compounds. Control compounds ganciclovir (GCV) and cidofovir ([(S)-1-(3-hydroxy-2-phosphonylmethoxypropyl)cytosine], HPMPC) were run in parallel.

Vero cells = assay: Cytotoxicity, alteration of cell morphology (MTC), Vero cells; type: cell-based; conditions: Table 1
From the text: as §2, §3, §4

HSV-1 KOS = assay: Anti-HSV CPE assay, HSV-1 KOS; type: cell-based, herpes simplex virus type 1
Method: as §5

HSV-2 G = assay: Anti-HSV CPE assay, HSV-2 G; type: cell-based, herpes simplex virus type 2
Method: as §5

[1] = Cytotoxicity, inhibition of cell growth (CC50), HEL cells; type: cell-based; conditions: human, Coulter counter
Method: (§6) Method 9. Cytotoxicity Measurements Based on the Inhibition of Cell Growth
(§7) Cells were seeded at a rate of 5×10^3 cells/well in 96-well plates and allowed to proliferate 24 hours. Different concentrations of the test compounds were then added (in duplicates), and after 3 days of incubation at 37 C. in 5% CO2 atmosphere, the cell number was determined with a coulter counter.

HCMV Davis [2] = assay: Anti-HCMV plaque assay; type: cell-based, cytomegalovirus; conditions: for EC50: Human betaherpesvirus 5, HEL
Method: (§8) Method 4. Anti-HCMV Assay
(§9) Human embryonic lung fibroblast cells (HEL) were grown in 96-well plates at the confluent stage and then were infected with reference strains of HCMV Davis at 8, 20, 38 plaque-forming units (PFU)/well for plaque assay or at 100 PFU/well for cytopathic effect (CPE) assay. After a 2 hours incubation, residual virus was removed and the infected cells were further incubated with Eagle's MEM culture medium supplemented with 2% inactivated FCS (fetal calf serum), 1% L-glutamine and 0.3% sodium bicarbonate containing dilution of the test compounds (in duplicate). After 7 days incubation at 37 C. in 5% CO2 atmosphere, cells were fixed with ethanol and stained with 2.5% Giemsa solution. Virus plaque formation or viral cytopathic effect were monitored microscopically. […] IC50 values were estimated from graphic plots of the number of plaques (percentage of control) or percentage of cytopathocity as a function of the concentration of the test compounds. Control compounds ganciclovir (GCV) and cidofovir ([(S)-1-(3-hydroxy-2-phosphonylmethoxypropyl)cytosine], HPMPC) were run in parallel.

EBV = assay: Anti-EBV assay, EBV-specific DNA/DNA hybridization in P3HR-1 cells; type: cell-based, Epstein-Barr virus; conditions: read-out: ANTI-EBV ACTIVITY EC50 DNA hybridiation assay
Method: To determine the effects of the compounds on EBV replication, exponentially growing P3HR-1 cells were treated for 14 days with various concentrations of the compounds. The cells were then harvested, and the genome copy numbers were determined using EBV-specific DNA/DNA hybridization technique. […] Control compound cidofovir ([(S)-1-(3-hydroxy-2-phosphonylmethoxypropyl)cytosine], HPMPC) was run in parallel.

in vitro = type: cell-based; conditions: human
From the text: Method 11. Cytotoxicity Measurements Based on Reduction of Total Cellular DNA Content Expressed as CC50*

[3] = Cytotoxicity, inhibition of cell growth (CC50), P3HR cells; type: cell-based; conditions: human, Coulter counter
Method: as §6, §7

HCMV Davis [4] = assay: Anti-HCMV CPE assay; type: cell-based, cytomegalovirus; conditions: HEL cells, 100 PFU/well; for EC50: Human betaherpesvirus 5, HEL, read-out: ANTI-HCMV ACTIVITY EC50 HCMV-Davis CPE 100/well (96 well)
Method: as §8, §9

[5] = Human alphaherpesvirus 1, Vero, read-out: ANTI-HSV ACTIVITY EC50 CPE assay HSV-1Tk- Vero, Vero cells
[6] = Human alphaherpesvirus 1, Vero cells, read-out: ANTI-HSV ACTIVITY EC50 CPE assay HSV-1-KOS Vero
[7] = Human alphaherpesvirus 2, Vero, Vero cells, read-out: ANTI-HSV ACTIVITY EC50 CPE assay HSV-2-G Vero
[8] = Human alphaherpesvirus 1, HEL, read-out: ANTI-HSV ACTIVITY EC50 CPE assay HSV-1Tk- HEL, HEL cells
[9] = HEL cells, 8 PFU/well, read-out: ANTI-HCMV ACTIVITY EC50 HCMV-Davis Plaque assay 8/well
[10] = HEL cells, 38 PFU/well, read-out: ANTI-HCMV ACTIVITY EC50 HCMV-Davis Plaque assay 38/well
[11] = Human alphaherpesvirus 1, HEL cells, read-out: ANTI-HSV ACTIVITY EC50 CPE assay HSV-1-KOS HEL

O=c1[nH]c(=O)n([C@H]2C[C@H](O)[C@@H](CO)O2)cc1/C=C/Br [BVDU, (E)-5-(2-bromovinyl)-2′-deoxyuridine]
EC50 (VZV YS strain; Human alphaherpesvirus 3, HEL): 0.0013 µg/mL (≈ 0.0039 µM) | EC50 (VZV OKA strain): 0.0013 µg/mL (≈ 0.0039 µM) | EC50 (VZV YS/R strain): 39 µg/mL (≈ 117 µM) | EC50 (VZV 07/1 strain): 4 µg/mL (≈ 12 µM) | CYTOTOXICITY HEL cells MTC (HEL cells; Table 3 (anti-VZV study)): >50 µg/mL

Nc1nc2c(ncn2COCCO)c(=O)[nH]1 [ACV, acyclovir]
EC50 (HSV-1 Tk−; [5]): 33 µg/mL (≈ 147 µM) | EC50 (VZV YS strain; Human alphaherpesvirus 3, HEL cells, 20 PFU): 0.69 µg/mL (≈ 3.06 µM) | CYTOTOXICITY MTC Vero (Vero cells): >10 µg/mL | EC50 (HSV-1 KOS; [6]): 2.4 µg/mL (≈ 10.7 µM) | EC50 (HSV-2 G; [7]): 1.3 µg/mL (≈ 5.77 µM)

O=C1NCc2ccccc2OCC/C=C/c2cncc3ccc1nc23 [Compound #1]
EC50 (HSV-1 Tk−; [8]): 0.062 µg/mL (≈ 0.187 µM) | EC50 (HSV-1 Tk−; [5]): 1.1 µg/mL (≈ 3.32 µM) | EC50 (VZV YS strain; Human alphaherpesvirus 3, HEL): 0.05 µg/mL (≈ 0.151 µM) | EC50 (VZV OKA strain): 0.06 µg/mL (≈ 0.181 µM) | EC50 (VZV YS/R strain): 0.05 µg/mL (≈ 0.151 µM) | EC50 (VZV 07/1 strain): 0.06 µg/mL (≈ 0.181 µM) | CC50 at 3 days [1]: 0.1 µg/mL (≈ 0.302 µM) | EC50 (HCMV Davis [2]; read-out: ANTI-HCMV ACTIVITY EC50 HCMV-Davis Plaque assay 8/well): < 0.0015 µg/mL | EC50 (HCMV Davis [2]; read-out: ANTI-HCMV ACTIVITY EC50 HCMV-Davis Plaque assay 20/well): < 0.0015 µg/mL | EC50 (HCMV Davis [2]; read-out: ANTI-HCMV ACTIVITY EC50 HCMV-Davis Plaque assay 38/well): 0.003 µg/mL (≈ 0.00905 µM) | EC50 (EBV; human gammaherpesvirus 4, P3HR-1, 336 h): < 0.2 µg/mL | CYTOTOXICITY MTC Vero (Vero cells): 25 µg/mL | EC50 (HSV-1 KOS; Human alphaherpesvirus 1, HEL, read-out: ANTI-HSV ACTIVITY EC50 CPE assay HSV-1-KOS HEL): 0.098 µg/mL (≈ 0.296 µM) | EC50 (HSV-1 KOS; Human alphaherpesvirus 1, Vero, read-out: ANTI-HSV ACTIVITY EC50 CPE assay HSV-1-KOS Vero): 0.52 µg/mL (≈ 1.57 µM) | EC50 (HSV-2 G; Human alphaherpesvirus 2, HEL, read-out: ANTI-HSV ACTIVITY EC50 CPE assay HSV-2-G HEL): 0.138 µg/mL (≈ 0.416 µM) | EC50 (HSV-2 G; Human alphaherpesvirus 2, Vero, read-out: ANTI-HSV ACTIVITY EC50 CPE assay HSV-2-G Vero): 0.009 µg/mL (≈ 0.0272 µM) | CC50 (in vitro): 2.6 µg/mL (≈ 7.85 µM) | CC50 at 3 days [3]: 0.7 µg/mL (≈ 2.11 µM) | CYTOTOXICITY MTC HEL (HEL cells): 6 µg/mL | CYTOTOXICITY HEL cells MTC (HEL cells; Table 3 (anti-VZV study)): >2 µg/mL

Nc1nc(O)c2ncn(COC(CO)CO)c2n1 [GCV, 9-[(1,3-dihyroxy-2-propoxy)methyl]guanine]
ANTI-HSV ACTIVITY EC50 CPE assay HSV-1Tk- HEL (HSV-1 Tk−; HEL cells): 17.4 µg/mL | EC50 (HSV-1 Tk−; [8]): 12.5 µg/mL (≈ 49 µM) | EC50 (HSV-1 Tk−; [5]): > 100 µg/mL | CC50 at 3 days [1]: 23 µg/mL (≈ 90.1 µM) | ANTI-HCMV ACTIVITY EC50 HCMV-Davis CPE 100/well (96 well) (HCMV Davis [4]): 0.78 µg/mL | EC50 (HCMV Davis [4]): 0.98 µg/mL (≈ 3.84 µM) | ANTI-HCMV ACTIVITY EC50 HCMV-Davis Plaque assay 8/well (HCMV Davis [2]; HEL cells, 8 PFU/well): 0.86 µg/mL | EC50 (HCMV Davis [2]; [9]): 0.94 µg/mL (≈ 3.68 µM) | EC50 (HCMV Davis [2]; [10]): > 100 µg/mL | CYTOTOXICITY MTC Vero (Vero cells): >100 µg/mL | EC50 (HSV-1 KOS; [11]): 0.01 µg/mL (≈ 0.0392 µM) | EC50 (HSV-1 KOS; [6]): 2.6 µg/mL (≈ 10.2 µM) | EC50 (HSV-2 G; [7]): 1.2 µg/mL (≈ 4.7 µM) | CYTOTOXICITY MTC HEL (HEL cells): >100 µg/mL | CYTOTOXICITY HEL cells MTC (HEL cells; Table 4 (anti-HCMV study)): >100 ug/m/

Nc1ccn(C[C@@H](CO)OCP(=O)(O)O)c(=O)n1 [HPMPC, (S)-1-(3-hydroxy-2-phosphonylmethoxypropyl)cytosine]
EC50 (HSV-1 Tk−; [8]): 0.012 µg/mL (≈ 0.043 µM) | EC50 (HSV-1 Tk−; [5]): 2.4 µg/mL (≈ 8.6 µM) | CC50 at 3 days [1]: 11 µg/mL (≈ 39.4 µM) | EC50 (HCMV Davis [4]): 0.1 µg/mL (≈ 0.358 µM) | EC50 (HCMV Davis [2]; [9]): 0.15 µg/mL (≈ 0.537 µM) | EC50 (HCMV Davis [2]; HEL cells, 20 PFU/well, read-out: ANTI-HCMV ACTIVITY EC50 HCMV-Davis Plaque assay 20/well): 0.14 µg/mL (≈ 0.501 µM) | EC50 (HCMV Davis [2]; [10]): 1.9 µg/mL (≈ 6.81 µM) | EC50 (EBV; human gammaherpesvirus 4, 336 h, P3HR-1 cells, treated 14 days): < 25 µg/mL | CYTOTOXICITY MTC Vero (Vero cells): >100 µg/mL | EC50 (HSV-1 KOS; [11]): 0.098 µg/mL (≈ 0.351 µM) | EC50 (HSV-1 KOS; [6]): 6.7 µg/mL (≈ 24 µM) | EC50 (HSV-2 G; Human alphaherpesvirus 2, HEL, HEL cells, read-out: ANTI-HSV ACTIVITY EC50 CPE assay HSV-2-G HEL): 0.01 µg/mL (≈ 0.0358 µM) | EC50 (HSV-2 G; [7]): 1.3 µg/mL (≈ 4.66 µM) | CC50 (in vitro): > 25 µg/mL | CC50 at 3 days [3]: 30 µg/mL (≈ 107 µM) | CYTOTOXICITY MTC HEL (HEL cells): >100 µg/mL | CYTOTOXICITY HEL cells MTC (HEL cells; Table 4 (anti-HCMV study)): >100 ug/m/
